Source: US20250115597A1, “TYK2 INHIBITORS AND COMPOSITIONS AND METHODS THEREOF” (LYNK PHARMACEUTICALS CO. LTD., priority 2021, published 2025)
Where two headings read alike, the source gives them in different places.

Columns and labels:
[1] = Microsomal metabolic stability assay; type: in vitro ADME; settings: pH 7.4, 0.5 mg/mL protein, 1 μM compound
Experimental: Microsomal Metabolic Stability Assay
Microsomes were pre-incubated with test compound or control compounds for 5 min at 37° C. in 100 mM potassium phosphate buffer, pH 7.4, 1.0 mM EDTA. The reaction was initiated by addition of 15 μL of the NADPH regenerating system to 30 μL of each incubation mixture per time point. The final incubation condition was composed of 0.5 mg/mL microsomal protein, 1 μM test article/positive control, 2 mM NADPH. The 0-minute samples were prepared by addition of a 30 μL aliquot of each incubation mixture to 135 μL quench reagent to precipitate proteins. And then a 15 μL aliquot of the NADPH regenerating system was added. At 5, 15, 30 and 45 minutes, the reaction will be stopped by the addition of cold acetonitrile solution containing internal standard. The samples taken at all time points were centrifuged at 5000×g for 15 minutes. 50 μL of supernatant are taken into 96-well assay plates pre-added with 50 μL ultrapure water, and then analyzed by LC/MS/MS.
Concentrations of test articles, control compounds in the samples were determined by using LC/MS/MS method. Plotting of the chromatograms and peak area integrations are carried out by Analyst (AB Sciex).
n the determination of the in vitro elimination constant (ke) of the control compounds, the analyte/internal standard peak area ratios will be converted to percentage remaining (% Remaining) with the following equation: […]
The slope was measured by the natural logarithm of the percentage of the residual compound and time, T1/2 was calculated according to the following formula.

[2] = target: T1, Ba/F3-FL-TYK2-P760L cells (Homo sapiens, UniProt P29597, P760L, cells depend on it); test: Anti-proliferative assay, Ba/F3-FL-TYK2-P760L cells (Cell-Titer Glo); type: cell-based; settings: 72 h, read-out: BaF3-FL-T2P760L IC50
T1 construct: BaF3-FL-T2P760L (nM)
Outline: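 Ba/F3 cells made IL-3-independent by TEL-fused or full-length mutant JAK-family kinases, seeded at 2000/well and dosed after 24 h with 9 three-fold dilutions topping at 20 μM. Viability after 72 h at 37 °C, 5% CO2 by Cell-Titer Glo ATP luminescence.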

[3] = dog liver microsomes, read-out: Dog LM Clint
[4] = dog liver microsomes, read-out: Dog LM T½
[5] = human liver microsomes, read-out: Human LM Clint
[6] = human liver microsomes, read-out: Human LM T½
[7] = rat liver microsomes, read-out: Rat LM Clint
[8] = rat liver microsomes, read-out: Rat LM T½

T1 sequence (P29597 whole entry P760L): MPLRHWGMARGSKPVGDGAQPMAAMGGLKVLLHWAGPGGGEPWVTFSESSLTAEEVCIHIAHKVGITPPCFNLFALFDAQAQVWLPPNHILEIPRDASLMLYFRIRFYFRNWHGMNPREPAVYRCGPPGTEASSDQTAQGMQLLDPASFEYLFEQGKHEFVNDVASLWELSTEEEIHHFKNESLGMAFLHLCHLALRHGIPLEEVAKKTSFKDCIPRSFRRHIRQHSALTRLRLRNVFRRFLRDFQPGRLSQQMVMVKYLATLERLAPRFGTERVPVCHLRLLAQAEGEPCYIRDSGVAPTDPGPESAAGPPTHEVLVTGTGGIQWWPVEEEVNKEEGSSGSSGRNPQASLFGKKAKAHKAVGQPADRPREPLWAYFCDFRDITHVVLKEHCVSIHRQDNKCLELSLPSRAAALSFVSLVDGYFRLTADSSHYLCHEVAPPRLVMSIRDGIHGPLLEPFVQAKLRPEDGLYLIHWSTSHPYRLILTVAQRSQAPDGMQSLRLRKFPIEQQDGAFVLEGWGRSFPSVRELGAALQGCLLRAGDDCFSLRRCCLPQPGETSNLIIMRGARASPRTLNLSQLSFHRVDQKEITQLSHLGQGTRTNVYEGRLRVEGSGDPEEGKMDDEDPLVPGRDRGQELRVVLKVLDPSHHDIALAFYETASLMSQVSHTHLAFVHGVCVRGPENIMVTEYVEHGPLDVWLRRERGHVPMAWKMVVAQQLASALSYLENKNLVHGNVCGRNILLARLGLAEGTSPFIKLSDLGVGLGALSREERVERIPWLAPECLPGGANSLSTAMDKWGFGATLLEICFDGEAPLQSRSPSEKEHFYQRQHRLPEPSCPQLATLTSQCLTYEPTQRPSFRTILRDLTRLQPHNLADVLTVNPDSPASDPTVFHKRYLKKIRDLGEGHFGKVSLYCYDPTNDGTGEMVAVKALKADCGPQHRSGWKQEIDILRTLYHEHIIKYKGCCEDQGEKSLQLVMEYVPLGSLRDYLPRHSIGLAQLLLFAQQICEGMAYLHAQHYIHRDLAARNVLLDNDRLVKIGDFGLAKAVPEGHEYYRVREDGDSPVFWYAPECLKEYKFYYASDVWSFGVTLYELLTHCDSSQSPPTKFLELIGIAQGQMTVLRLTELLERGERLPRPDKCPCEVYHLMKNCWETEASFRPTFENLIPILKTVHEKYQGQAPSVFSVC

Row | microsomal CLint at 1 μM [1, 3] | half-life at 1 μM [1, 4] | microsomal CLint at 1 μM [1, 5] | half-life at 1 μM [1, 6] | microsomal CLint at 1 μM [1, 7] | half-life at 1 μM [1, 8] | GI50 [2] | SMILES
1 | 19.9 µL/min/mg | 69.6 min | 135 µL/min/mg | 10.2 min | 115 µL/min/mg | 12.1 min | 42.2 nM | [2H]C([2H])([2H])NC(=O)c1cnc(Nc2cc(F)c(F)cn2)cc1Nc1cn(C)c2c(F)cn(C)c(=O)c12 [Example 121, 6-((4,5-Difluoropyridin-2-yl)amino)-4-((7-fluoro-1,5-dimethyl-4-oxo-4,5-dihydro-1H-pyrrolo[3,2-c]pyridin-3-yl)amino)-N-(methyl-d3)nicotinamide]
2 | 18.7 µL/min/mg | 84.8 min | 53 µL/min/mg | 26.2 min | 55.6 µL/min/mg | 25 min | 100 nM | [2H]C([2H])([2H])NC(=O)c1cnc(NC(=O)C2CC2)cc1Nc1cn(C)c2c(F)cn(CC(F)(F)F)c(=O)c12 [Example 123, 6-(Cyclopropanecarboxamido)-4-((7-fluoro-1-methyl-4-oxo-5-(2,2,2-trifluoroethyl)-4,5-dihydro-1H-pyrrolo[3,2-c]pyridin-3-yl)amino)-N-(methyl-d3)nicotinamide]
3 | 93.8 µL/min/mg | 14.8 min | 76 µL/min/mg | 18.2 min | 46.8 µL/min/mg | 29.6 min | 29.1 nM | [2H]C([2H])([2H])NC(=O)c1cnc(Nc2ccc(F)cn2)cc1Nc1ccc2cnn(C([2H])([2H])[2H])c2c1OC [Example 141, 6-((5-Fluoropyridin-2-yl)amino)-4-((7-methoxy-1-(methyl-d3)-1H-indazol-6-yl)amino)-N-(methyl-d3)nicotinamide]
4 | 54.4 µL/min/mg | 25.5 min | 59 µL/min/mg | 23.5 min | 124 µL/min/mg | 11.1 min | 175 nM | [2H]C([2H])([2H])NC(=O)c1cnc(NC(=O)C2CC2)cc1Nc1cc(F)c2cnn(CC)c2c1OC [Example 147, 6-(Cyclopropanecarboxamido)-4-((1-ethyl-4-fluoro-7-methoxy-1H-indazol-6-yl)amino)-N-(methyl-d3)nicotinamide]
5 | 27.2 µL/min/mg | 51 min | 74.6 µL/min/mg | 18.6 min | 63.5 µL/min/mg | 21.8 min | 21.6 nM | [2H]C([2H])([2H])NC(=O)c1cnc(Nc2cccc(F)n2)cc1Nc1cn(C)c2c(Cl)cn(CC)c(=O)c12 [Example 161, 4-((7-Chloro-5-ethyl-1-methyl-4-oxo-4,5-dihydro-1H-pyrrolo[3,2-c]pyridin-3-yl)amino)-6-((6-fluoropyridin-2-yl)amino)-N-(methyl-d3)nicotinamide]
6 | 12.1 µL/min/mg | 114 min | 82.1 µL/min/mg | 16.9 min | 101 µL/min/mg | 13.7 min | 36.7 nM | [2H]C([2H])([2H])NC(=O)c1cnc(Nc2cccc(C#N)n2)cc1Nc1cn(C)c2c(Cl)cn(CC)c(=O)c12 [Example 163, 4-((7-Chloro-5-ethyl-1-methyl-4-oxo-4,5-dihydro-1H-pyrrolo[3,2-c]pyridin-3-yl)amino)-6-((6-cyanopyridin-2-yl)amino)-N-(methyl-d3)nicotinamide]
7 | 2.94 µL/min/mg | 471 min | 12.8 µL/min/mg | 109 min | 16.9 µL/min/mg | 81.9 min | 105 nM | CNC(=O)c1cnc(NC(=O)C2CC2)cc1Nc1csc2c(Cl)cn(C)c(=O)c12 [Example 171, 4-((7-Chloro-5-methyl-4-oxo-4,5-dihydrothieno[3,2-c]pyridin-3-yl)amino)-6-(cyclopropanecarboxamido)-N-methylnicotinamide]
8 | 16.5 µL/min/mg | 84.1 min | 57.4 µL/min/mg | 24.1 min | 66.5 µL/min/mg | 20.8 min | 109 nM | [2H]C([2H])([2H])NC(=O)c1cnc(NC(=O)C2CC2)cc1Nc1csc2c(Cl)cn(C)c(=O)c12 [Example 172, 4-((7-Chloro-5-methyl-4-oxo-4,5-dihydrothieno[3,2-c]pyridin-3-yl)amino)-6-(cyclopropanecarboxamido)-N-(methyl-d3)nicotinamide]
9 | < 11.5 µL/min/mg | > 120 min | 18.2 µL/min/mg | 76.2 min | 25.9 µL/min/mg | 53.5 min | 147 nM | [2H]C([2H])([2H])NC(=O)c1cnc(NC(=O)C2CC2)cc1Nc1csc2c(Cl)cn(C([2H])([2H])[2H])c(=O)c12 [Example 174, 4-((7-Chloro-5-(methyl-d3)-4-oxo-4,5-dihydrothieno[3,2-c]pyridin-3-yl)amino)-6-(cyclopropanecarboxamido)-N-(methyl-d3)nicotinamide]
10 | < 11.5 µL/min/mg | > 120 min | < 11.5 µL/min/mg | > 120 min | 23.1 µL/min/mg | 60.1 min | 189 nM | [2H]C([2H])([2H])NC(=O)c1cnc(NC(=O)C2CC2)cc1Nc1csc2cnn(C(C)C)c(=O)c12 [Example 184, 6-(Cyclopropanecarboxamido)-4-((5-isopropyl-4-oxo-4,5-dihydrothieno[2,3-d]pyridazin-3-yl)amino)-N-(methyl-d3)nicotinamide]
11 | < 11.5 µL/min/mg | > 120 min | < 11.5 µL/min/mg | > 120 min | < 11.5 µL/min/mg | > 120 min | 428 nM | [2H]C([2H])([2H])NC(=O)c1cnc(NC(=O)C2CC2)cc1Nc1csc2cnn(C(C)C(F)(F)F)c(=O)c12 (stereo not shown) [Example 185, 6-(Cyclopropanecarboxamido)-N-(methyl-d3)-4-((4-oxo-5-(1,1,1-trifluoropropan-2-yl)-4,5-dihydrothieno[2,3-d]pyridazin-3-yl)amino)nicotinamide]
12 | 1.15 µL/min/mg | 1210 min | 6.2 µL/min/mg | 224 min | 26.1 µL/min/mg | 53 min | 247 nM | [2H]C([2H])([2H])NC(=O)c1cnc(NC(=O)C2CC2)cc1Nc1csc2cnn(CC(F)(F)F)c(=O)c12 [Example 189, 6-(Cyclopropanecarboxamido)-N-(methyl-d3)-4-((4-oxo-5-(2,2,2-trifluoroethyl)-4,5-dihydrothieno[2,3-d]pyridazin-3-yl)amino)nicotinamide]
13 | < 11.5 µL/min/mg | > 120 min | < 11.5 µL/min/mg | > 120 min | 13.1 µL/min/mg | 106 min | 1270 nM | [2H]C([2H])([2H])NC(=O)c1cnc(NC(=O)C2CC2)cc1Nc1csc2cnn(CC3CC3(F)F)c(=O)c12 (stereo not shown) [Example 191, 6-(Cyclopropanecarboxamido)-4-((5-((2,2-difluorocyclopropyl)methyl)-4-oxo-4,5-dihydrothieno[2,3-d]pyridazin-3-yl)amino)-N-(methyl-d3)nicotinamide]
14 |  |  | 40 µL/min/mg | 34.6 min | 8.8 µL/min/mg | 158 min | 560 nM | [2H]C([2H])([2H])NC(=O)c1cnc(NC(=O)C2CC2)cc1Nc1cn(C)c2ncn(CC(F)(F)F)c(=O)c12 [Example 195, 6-(Cyclopropanecarboxamido)-N-(methyl-d3)-4-((7-methyl-4-oxo-3-(2,2,2-trifluoroethyl)-4,7-dihydro-3H-pyrrolo[2,3-d]pyrimidin-5-yl)amino)nicotinamide]
15 | < 11.5 µL/min/mg | > 120 min | 26.4 µL/min/mg | 52.5 min | 53.8 µL/min/mg | 25.8 min | 585 nM | [2H]C([2H])([2H])NC(=O)c1cnc(Nc2ccn(C)n2)cc1Nc1cn(C)c2c(C)cn(CC)c(=O)c12 [Example 198, 4-((5-Ethyl-1,7-dimethyl-4-oxo-4,5-dihydro-1H-pyrrolo[3,2-c]pyridin-3-yl)amino)-N-(methyl-d3)-6-((1-methyl-1H-pyrazol-3-yl)amino)nicotinamide]
